Where a name gives a salt, the structure may show the parent alone.
What was measured:
PspE (fraction PspE2) [1] = target: T1, PspE (fraction PspE2) (Escherichia coli, UniProt P23857); test: rhodanese assay; assay type: biochemical; settings: Tris-acetate pH 8.6; for % inhibition at 0.25 M: 250000 µM, anion inhibition
T1 construct: 85 residues, 9428 Da; untagged; overexpressed from pHC4.1 (pT7-7) in E. coli BL21(DE3), freeze-thaw extract, SP cation exchange; partly persulfide/sulfonate modified at single cysteine
T1 sequence (P23857 20-104): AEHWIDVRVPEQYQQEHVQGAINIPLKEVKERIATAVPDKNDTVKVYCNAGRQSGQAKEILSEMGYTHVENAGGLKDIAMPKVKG

PspE (fraction PspE2) [2] = target: T1, PspE (fraction PspE2); test: chemical inactivation by cysteine reagent; assay type: biochemical; settings: covalent; active-site cysteine; fraction PspE1 more tolerant than PspE2; data not shown
purified protein [3] = substrate: OC(CS)C(O)CS; test: purified protein; assay type: biochemical, Escherichia coli; settings: sulfur acceptor, 4 mM or 10 mM thiosulfate, Tris-acetate pH 8.6, PspE fraction not stated
purified protein [4] = substrate: O=S(O)(O)=S; test: purified protein; assay type: biochemical, Escherichia coli; settings: pH 8.6; 25.0 °C

O=S(=O)(O)O [sodium sulfate]
% inhibition at 0.25 M (PspE (fraction PspE2) [1]): ~ 50%

O=P(O)(O)O [sodium phosphate]
% inhibition at 0.25 M (PspE (fraction PspE2) [1]): ~ 65%

O=C(O)c1cc(SSc2ccc([N+](=O)[O-])c(C(=O)O)c2)ccc1[N+](=O)[O-] [5,5’-dithio-bis(2-nitrobenzoic acid)]
chemical inactivation by cysteine reagent (PspE (fraction PspE2) [2]): PspE1 was much more tolerant to chemical inactivation by the cysteine-modifying reagent

O=S(O)O [sodium sulfite]
% inhibition at 1 mM (PspE (fraction PspE2) [1]; rhodanese product as inhibitor, data not shown): > 50%

B1: PspE (fraction PspE2) (Escherichia coli K-12) (protein)
chain: T1 sequence (P23857 20-104)
notes: 85 residues, 9428 Da; untagged; overexpressed from pHC4.1 (pT7-7) in E. coli BL21(DE3), freeze-thaw extract, SP cation exchange; partly persulfide/sulfonate modified at single cysteine
Km (purified protein [3]): 10 mM | Km (purified protein [4]): 2.7 mM | kcat (purified protein [4]): 64 s⁻¹

From article PMC2593051, “Biochemical and Genetic Characterization of PspE and GlpE, Two Single-domain Sulfurtransferases of Escherichia coli” (The Open Microbiology Journal, 2008)
